The compounds below were run on subgenomic HCV replicon in Huh-7 cells (assay: Cell-Based HCV Replication Assay (replicon, NS3 Cell-ELISA)). Details: Hepatitis C virus, Huh-7, 96 h, read-out: Cell based HCV Replication Assay-IC50.
Set-up: species or system hepatitis C virus (HCV)
Description: Another suitable assay is the cellular Replicon or rheplisa assay described as follows:
Cell-Based HCV Replication Assay
Cell clones that stably maintain subgenomic HCV replicon were obtained by transfecting Huh-7 cells with an RNA replicon identical to I377neo/NS3-3′/wt described by V. Lohmann et al., 285 SCIENCE 110 (Jul. 2, 1999) (EMBL-GENBANK No. AJ242652), followed by selection with neomycin sulfate (G418). Viral replication was monitored by measuring the expression of the NS3 protein by an ELISA assay performed directly on cells grown in 96-well microtiter plates (Cell-ELISA) using the anti-NS3 monoclonal antibody 10E5/24 (as described in International Patent Application Publication WO 02/59321). Cells were seeded into 96 well plates at a density of 10^4 cells per well in a final volume of 0.1 ml of DMEM/10% FCS. Two hours after plating, 50 μl of DMEM/10% FCS containing a 3× concentration of inhibitor were added, cells were incubated for 96 hours and then fixed for 10 minutes with ice-cold isopropanol. Each condition was tested in duplicate and average absorbance values were used for calculations. The cells were washed twice with PBS, blocked with 5% non-fat dry milk in PBS+0.1% TRITON X-100+0.02% SDS (PBSTS) and then incubated o/n at 4° C. with the 10E5/24 mab diluted in Milk/PBSTS. After washing 5 times with PBSTS, the cells were incubated for 3 hours at room temperature with Fe-specific anti-mouse IgG conjugated to alkaline phosphatase (Sigma), diluted in Milk/PBSTS. After washing again as above, the reaction was developed with p-nitrophenyl phosphate disodium substrate (Sigma) and the absorbance at 405/620 nm read at intervals. For calculations, we used data sets where samples incubated without inhibitors had absorbance values comprised between 1 and 1.5. The inhibitor concentration that reduced by 50% the expression of NS3 (IC50) was calculated by fitting the data to the Hill equation, Fraction inhibition=1−(Ai−b)/(A0−b)=[I]^n/([I]+IC50) where: • Ai=absorbance value of HBI10 cells supplemented with the indicated inhibitor concentration. • A0=absorbance value of HBI10 cells incubated without inhibitor. • b=absorbance value of Huh-7 cells plated at the same density in the same microtiter plates and incubated without inhibitor. • n=Hill coefficient.

Structure (SMILES) | IC50 [nM]
C=C[C@@H]1C[C@]1(NC(=O)[C@@H]1C[C@@H]2CN1C(=O)[C@H](C1CCCCC1)NC(=O)N1CCC[C@@H](CCCCc3cc4c(cc(-c5ccccc5)nc4cc3OC)O2)C1)C(=O)NS(=O)(=O)C1CC1 [Example 7, (3R,5S,8S,15R)-8-cyclohexyl-N-((1R,2S)-1-{[(cyclopropylsulfonyl)amino]carbonyl}-2-vinylcyclopropyl)-21-methoxy-7,10-dioxo-25-phenyl-2-oxa-6,9,11,24-tetraazapentacyclo [18.6.2.1^3,6.1^11,15.0^23,27] triaconta-1(27),20,22,23,25,27-hexaene-5-carboxamide] | 8
C=C[C@@H]1C[C@]1(NC(=O)[C@@H]1C[C@@H]2CN1C(=O)[C@H](C(C)(C)C)NC(=O)N1CCC[C@H]1CCCCc1cccc3c1CN(C3)C(=O)O2)C(=O)NS(=O)(=O)C1CC1 [Example 5, (1R,16R,23S,26S)-23-tert-butyl-N-((1R,2S)-1-{[(cyclopropylsulfonyl)amino]carbonyl}-2-vinylcyclopropyl)-3,21,24-trioxo-2-oxa-4,20,22,25-tetraazapentacyclo [23.2.1.1^4,7.0^6,11.0^16,20] nonacosa-6,8,10-triene-26-carboxamide] | 170

Same assay, conditions: Hepatitis C virus; Huh-7 cells with subgenomic HCV replicon; NS3 expression by Cell-ELISA; 96 hours incubation; read-out: Cell based HCV Replication Assay-IC50

Structure (SMILES) | IC50 [nM]
C=C[C@@H]1C[C@]1(NC(=O)[C@@H]1C[C@@H]2CN1C(=O)[C@H](C1CCCCC1)NC(=O)N1CCC[C@H](C1)OCCCc1cc3c(cc(-c4ccccc4)nc3cc1OC)O2)C(=O)NS(=O)(=O)C1CC1 [Example 8, (3R,5S,8S,15R)-8-cyclohexyl-N-((1R,2S)-1-{[(cyclopropylsulfonyl)amino]carbonyl}-2-vinylcyclopropyl)-21-methoxy-7,10-dioxo-25-phenyl-2,16-dioxa-6,9,11,24-tetraazapentacyclo [18.6.2.1^3,6.1^11,15.0^23,27] triaconta-1(27),20,22,23,25,27-hexaene-5-carboxamide] | 5
C=C[C@@H]1C[C@]1(NC(=O)[C@@H]1CC2CN1C(=O)[C@H](C1CCCC1)NC(=O)N1CCCC(C1)OC/C=C/Cn1cc(C)c3c4ccccc4nc(c31)O2)C(=O)NS(=O)(=O)C1CC1 (stereo in doubt) [Example 15, (3S,5S,8S,18E)-8-cyclopentyl-N-((1R,2S)-1-{[(cyclopropylsulfonyl)amino]carbonyl}-2-vinylcyclopropyl)-23-methyl-7,10-dioxo-2,16-dioxa-6,9,11,21,31-pentaazahexacyclo [19.10.1.1^3,6.1^11,15.0^24,32.0^25,30] tetratriaconta-1(31),18,22,24(32),25,27,29-heptaene-5-carboxamide] | 5
C=C[C@@H]1C[C@]1(NC(=O)[C@@H]1C[C@@H]2CN1C(=O)[C@H](C1CCCC1)NC(=O)N1CC[C@H](COCCCc3nc4ccc(OC)cc4cc3O2)C1)C(=O)NS(=O)(=O)C1CC1 [Example 25, (1R,18S,24S,27S)-24-cyclopentyl-N-((1R,2R)-1-{[(cyclopropylsulfonyl)amino]carbonyl}-2-vinylcyclopropyl)-7-methoxy-22,25-dioxo-2,16-dioxa-11,21,23,26-tetraazapentacyclo [24.2.1.1^18,21.0^3,12.0^5,10] triaconta-3(12),4,5,7,9,10-hexaene-27-carboxamide] | 7
C=C[C@@H]1C[C@]1(NC(=O)[C@@H]1C[C@@H]2CN1C(=O)[C@H](C1CCCC1)NC(=O)N1CC[C@H](C1)OCCC/C=C/c1cc3ccc(OC)cc3nc1O2)C(=O)NS(=O)(=O)C1CC1 [Example 21, (1R,13E,19S,25S,28S)-25-cyclopentyl-N-((1R,2R)-1-{[(cyclopropylsulfonyl)amino]carbonyl}-2-vinylcyclopropyl)-7-methoxy-23,26-dioxo-2,18-dioxa-4,22,24,27-tetraazapentacyclo [25.2.1.1^19,22.0^3,12.0^5,10] hentriaconta-3(12),4,5,7,9,10,13-heptaene-28-carboxamide] | 20
C=C[C@@H]1C[C@]1(NC(=O)[C@@H]1C[C@@H]2CN1C(=O)[C@H](C1CCCC1)NC(=O)N1CC[C@@H](C1)OCCCc1ccc3nc(OCC)nc(c3c1)O2)C(=O)NS(=O)(=O)C1CC1 [Example 41, (3R,5S,8S,14S)-8-cyclopentyl-N-((1R,2S)-1-{[(cyclopropylsulfonyl)amino]carbonyl}-2-vinylcyclopropyl)-24-ethoxy-7,10-dioxo-2,15-dioxa-6,9,11,23,25-pentaazapentacyclo [17.6.2.1^3,6.1^11,14.0^22,26] nonacosa-1(25),19,21,23,26-pentaene-5-carboxamide] | 94
C=C[C@@H]1C[C@]1(NC(=O)[C@@H]1C[C@@H]2CN1C(=O)[C@H](C1CCCC1)NC(=O)N1CC[C@@H](C1)OC/C=C/Cn1cc(C)c3c4ccccc4nc(c31)O2)C(=O)NS(=O)(=O)C1CC1 [Example 31, (4E,8S,14S,17S,19R)-14-cyclopentyl-N-((1R,2S)-1-{[(cyclopropylsulfonyl)amino]carbonyl}-2-vinylcyclopropyl)-1-methyl-12,15-dioxo-3,6,9,10,12,13,14,15,18,19-decahydro-8H,17H-8,11:16,19-dimethano-7,20-dioxa-2a,11,13,16,21-pentaazabenzo[g] cyclohenicosa[1,2,3-cd]indene-17-carboxamide] | 7
C=C[C@@H]1C[C@]1(NC(=O)[C@@H]1C[C@@H]2CN1C(=O)[C@H](C1CCCC1)NC(=O)N1CC[C@@H](C1)OCCCCCc1cc3ccc(OC)cc3nc1O2)C(=O)NS(=O)(=O)C1CC1 [Example 18, (1R,19S,25S,28S)-25-cyclopentyl-N-((1R,2S)-1-{[(cyclopropylsulfonyl)amino]carbonyl}-2-vinylcyclopropyl)-7-methoxy-23,26-dioxo-2,18-dioxa-4,22,24,27-tetraazapentacyclo [25.2.1.1^19,22.0^3,12.0^5,10] hentriaconta-3(12),4,5,7,9,10-hexaene-28-carboxamide] | 7

Same assay, conditions: Hepatitis C virus; Huh-7 replicon cells; NS3 expression by Cell-ELISA; 96 hours; read-out: Cell-based HCV Replication Assay: IC50

Structure (SMILES) | IC50 [nM]
C=C[C@@H]1C[C@]1(NC(=O)[C@@H]1C[C@@H]2CN1C(=O)[C@H](C1CCCCC1)NC(=O)N1CC(C1)OCCCCc1cc3c(cc(OCC)nc3cc1OC)O2)C(=O)NS(=O)(=O)C1CC1 [Example 45, (3R,5S,8S)-8-cyclohexyl-N-((1R,2S)-1-{[(cyclopropylsulfonyl)amino]carbonyl}-2-vinylcyclopropyl)-24-ethoxy-20-methoxy-7,10-dioxo-2,14-dioxa-6,9,11,23-tetraazapentacyclo[17.6.2.1^3,6.1^11,13.0^22,26]nonacosa-1(25),19,21,23,26-pentaene-5-carboxamide] | 6
C=C[C@@H]1C[C@]1(NC(=O)[C@@H]1C[C@@H]2CN1C(=O)[C@H](C1CCCCC1)NC(=O)N1CCC[C@@H](C1)OCCCc1cc3c(cc(OCC)nc3cc1OC)O2)C(=O)NS(=O)(=O)C1CC1 [Example 1, (3R,5S,8S,15S)-8-Cyclohexyl-N-((1R,2S)-1-{[(cyclopropylsulfonyl)amino]carbonyl}-2-vinylcyclopropyl)-25-ethoxy-21-methoxy-7,10-dioxo-2,16-dioxa-6,9,11,24-tetraazapentacyclo[18.6.2.1^3,6.1^11,15.0^23,27]triaconta-1(27),20,22,23,25,27-hexaene-5-carboxamide] | 4
C=C[C@@H]1C[C@]1(NC(=O)[C@@H]1C[C@@H]2CN1C(=O)[C@H](C1CCCCC1)NC(=O)N1CC(C1)OCC/C=C/c1cc3c(cc(OCC)nc3cc1OC)O2)C(=O)NS(=O)(=O)C1CC1 [Example 44, (3R,5S,8S,17E)-8-Cyclohexyl-N-((1R,2S)-1-{[(cyclopropylsulfonyl)amino]carbonyl}-2-vinylcyclopropyl)-24-ethoxy-20-methoxy-7,10-dioxo-2,14-dioxa-6,9,11,23-tetraazapentacyclo[17.6.2.1^3,6.1^11,13.0^22,26]nonacosa-1(25),17,19,21,23,26-hexaene-5-carboxamide] | 6

Same assay, conditions: Huh-7 cells with subgenomic HCV replicon; NS3 expression by Cell-ELISA; 96 hours incubation; read-out: Cell based HCV Replication Assay-IC50

Structure (SMILES) | IC50 [nM]
CC[C@@H]1C[C@]1(NC(=O)[C@@H]1C[C@@H]2CN1C(=O)[C@H](C1CCCC1)NC(=O)N1CC[C@@H](C1)OCCCCCc1cc3ccc(OC)cc3nc1O2)C(=O)NS(=O)(=O)C1CC1 [Example 20, (1R,19S,25S,28S)-25-cyclopentyl-N-((1R,2R)-1-{[(cyclopropylsulfonyl)amino]carbonyl}-2-ethylcyclopropyl)-7-methoxy-23,26-dioxo-2,18-dioxa-4,22,24,27-tetraazapentacyclo [25.2.1.1^19,22.0^3,12.0^5,10] hentriaconta-3(12),4,5,7,9,10-hexaene-28-carboxamide] | 15

Source: patent US8591878B2, “Therapeutic compounds” (Merck Sharp & Dohme Corp., priority 2008, dated 2013)
